Data: patent EP0142333A2, “Glycerol derivatives” (ONO PHARMACEUTICAL CO., LTD., priority 1983, dated 1985)
Structures can show the parent of a compound that is named as a salt.

Key:
[1] = system: PAF-induced platelet aggregation; assay: Inhibitory effect on PAF-induced platelet aggregation (platelet rich plasma, Born aggregometer); type: cell-based; conditions: Cavia porcellus; platelet rich plasma of male guinea-pig; PAF (10nM)-induced aggregation; absorbancy method
Description: (1) Inhibitory effect on PAF-induced platelet aggregation
Whole blood of male guinea-pig was collected with a 3.8%. aqueous solution of trisodium citrate in a proportion of 9:1 (v/v) and the mixture was centrifuged for 10 minutes at room temperature (120 x g) to obtain platelet rich plasma. Using obtained plasma, PAF (10nM)-induced aggregation was determined by the absorbancy method using an aggregometer of Born (cf. J. Physiol., 162, 67 (1962)) .
The evaluation is conducted using the concentration of compounds of the present invention required to produce a 50% inhibition of each effect, i.e. IC50.

mice = assay: Acute toxicity by intravenous administration; type: in vivo; conditions: intravenously administered to tail vein in mice at the dose of 50 mg/kg

| SMILES | IC50 [1] [nM] | mortality (dead/used) (mice) |
| --- | --- | --- |
| CCCCCCCCCCCCCCCCOCC(CCC)COCCCC[N+](C)(C)C (racemic) [Example 2, (2RS)-1-0-hexadecyl-2-dehydroxy-2-n-propyl-3-0-[4-(trimethylammonio)butyl]glycerol·iodide] | 5300 | – |
| CCCCCCCCCCCCCCCCOCC(COCCCCCCC[N+](C)(C)C)OCCC (racemic) [5(b), (2RS)-1-0-hexadecyl-2-0-n-propyl-3-0-(7-(trimethylammonio)heptyl]glycerol·methanesulfonic acid salt] | 1800 | 0/5 |
| CCCCCCCCCCCCCCCCOCC(COCCCCCCC[N+](C)(C)C)OC (racemic) [Example 5, (2RS)-1-0-hexcadecyl-2-0-methyl-3-0-[7-(trimethylammonio)heptyl] glycerol·methanesulfonic acid salt] | 1300 | 0/5 |
| CCCCCCCCCCCCCCCCOCC(COCCCCCCC[N+](C)(C)C)OCC (racemic) [5(a), (2RS)-1-0-hexadecyl-2-0-ethyl-3-0-[7-(trimethylammonio)heptyl]glycerol·methanesulfonic acid salt] | – | 0/5 |
| C=CCOC(COCCCCCCCCCCCCCCCC)COCCCC[N+](C)(C)C (racemic) [Example 7, (2RS)-1-0-hexadecyl-2-0-allyl-3-0-[4-(trimethylammonio)butyl] glycerol·iodide] | 3800 | – |
| CCCCCCCCCCCCCCCCOCC(COCCCC[N+](C)(C)C)C(C)C (racemic) [Example 2(b), (2RS)-l-0-hexadecyl-2-dehydroxy-2-iso-propyl-3-0-[4-(trimethylammonio)butyl]glycerol·iodide] | – | 2/5 |
